pEC50: −log10 of the molar value.
System: COVID-19 virus
Assay: Inhibition of COVID-19 virus replication in Vero E6 cells (vRNA in supernatant by qRT-PCR)
Type: cell-based, COVID-19 virus (clinical isolates) in Vero E6 cells
Conditions: for antiviral effect (viral RNA replication): Vero cells infected with COVID-19 virus, MOI 0.05, compound at concentrations of 30 μM and 10 μM, FIG. 2
Method: In order to further confirm the results of enzyme inhibition in vitro, whether the bromophenol-pyrazoline compounds can prevent COVID-19 virus replication in Vero E6 cells infected with clinical isolates of COVID-19 virus was evaluated in the present invention.
Specific operations: The pre-seeded Vero E6 cells (5×10^4 cells/well) were pre-treated for 1 hr with various concentrations of bromophenol-pyrazoline compounds to be tested, and then infected for 2 hrs by adding COVID-19 virus (with an MOI of 0.05). Then, the mixture of the virus and compound was removed, and the cells were further incubated in a fresh medium containing the bromophenol-pyrazoline compound. After 24 hrs, the cell supernatant was collected, and the vRNA in the supernatant was analyzed by qRT-PCR.

Row | Structure (SMILES) | pEC50 (Severe acute respiratory syndrome coronavirus 2, Vero C1008, read-out: EC50, inhibition of virus replication) | antiviral effect (viral RNA replication)
1 | CCOc1ccc(Oc2ccc(C3=NNC(c4cc(O)c(O)c(Br)c4Br)C3)cc2)cc1 (stereo not shown) [Compound 6a, 3,4-dibromo-5-(3-(4-(4-ethoxyphenoxy)phenyl)-4,5-dihydro-1H-pyrazol-5-yl)-1,2-dihydroxybenzene] | 5.35 | strong antiviral effects
2 | CCOc1ccc(Oc2ccc(C3=NN(C=O)C(c4cc(O)c(O)c(Br)c4Br)C3)cc2)cc1 (stereo not shown) [Compound 6b, 5-(2,3-dibromo-4,5-dihydroxyphenyl)-3-(4-(4-ethoxyphenoxy)phenyl)-4,5-dihydro-1H-pyrazol-1-carboxaldehyde] |  | strong antiviral effects
3 | CCOc1ccc(Oc2ccc(C3=NN(C(C)=O)C(c4cc(O)c(O)c(Br)c4Br)C3)cc2)cc1 (stereo not shown) [Compound 6c, 5-(2,3-dibromo-4,5-dihydroxyphenyl)-3-(4-(4-ethoxyphenoxy)phenyl)-4,5-dihydro-1H-1-acetyl pyrazole] |  | strong antiviral effects

From patent publication US11820763B2, “Bromophenol-pyrazoline compound and synthesis method and use thereof” (Lead High Technology (QingDao) Co., Ltd, priority 2020, dated 2023)
